Target: T1, human MRGPRX2 (Homo sapiens, UniProt Q96LB1)
T1 sequence (Q96LB1 1-330): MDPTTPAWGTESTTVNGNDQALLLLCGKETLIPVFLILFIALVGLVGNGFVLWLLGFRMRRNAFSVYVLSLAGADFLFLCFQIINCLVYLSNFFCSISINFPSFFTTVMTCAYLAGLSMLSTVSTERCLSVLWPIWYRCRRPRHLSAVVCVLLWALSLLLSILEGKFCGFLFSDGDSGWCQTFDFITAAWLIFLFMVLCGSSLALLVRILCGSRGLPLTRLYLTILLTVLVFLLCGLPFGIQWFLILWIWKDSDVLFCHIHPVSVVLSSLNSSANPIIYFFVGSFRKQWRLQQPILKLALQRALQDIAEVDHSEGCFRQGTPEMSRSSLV
Test: Ca2+ mobilization assay (FLIPR TETRA): inhibition of Cortistatin-14 mediated MRGPRX2 activation

Row | Structure (SMILES) | IC50
1 | CC(C)(C(=O)Nc1ccc(OCC2CC2)cn1)N1CCC(F)(F)[C@@H](c2ccc(=O)[nH]c2)C1 (single isomer, unassigned) [Example 183] | 100 to 3160 nM
2 | C[C@@H](C(=O)Nc1ccc(F)cn1)N1CCC(F)(F)[C@@H](c2c[nH]c(=O)c(N)n2)C1 [Example 106, (S)-2-((R)-3-(6-amino-5-oxo-4,5-dihydropyrazin-2-yl)-4,4-difluoropiperidin-l-y1)-N-(5-fluoropyridin-2-yl) propanamide] | 10 to 100 nM
3 | C[C@@H](C(=O)Nc1ccc(OCC2CC2)nn1)N1CCC(F)(F)[C@@H](c2c[nH]c(=O)c(N)n2)C1 (single isomer, unassigned) [Example 104] | ≤ 10 nM
4 | CC(C(=O)Nc1ccc(F)cn1)N1CCC(F)(F)C(c2c[nH]c(=O)c(C(N)=O)c2)C1 (stereo not drawn) [Example 253] | 100 to 3160 nM
5 | C[C@@H](C(=O)Nc1ccc(Oc2ccc(F)cc2F)cn1)N1CCC(F)(F)[C@@H](c2c[nH]c(=O)c(CN)c2)C1 [Example 205, (S)-2-((S)-3-(5-(aminomethyl)-6-oxo-1,6-dihydropyridin-3-yl)-4,4-difluoropiperidin-1-yl)-N-(5-(2,4-difluorophenoxy)pyridin-2-yl)propanamide] | ≤ 10 nM
6 | C[C@@H](C(=O)Nc1ccc(Oc2c(F)cc(F)cc2F)cn1)N1CCC(F)(F)[C@@H](c2cc[n+]([O-])cc2)C1 [Example 123, 4-((S)-4,4-difluoro-1-((S)-1-oxo-1-((5-(2,4,6-trifluorophenoxy)pyridin-2-yl)amino)propan-2-yl)piperidin-3-yl)pyridine 1-oxide] | ≤ 10 nM
7 | C[C@@H](C(=O)Nc1ccc(Oc2ccc(F)cc2F)cn1)N1CCC(F)(F)C(c2cc(C(O)C(F)(F)F)c[n+]([O-])c2)C1 (mixture of isomers) [Example 266, 3-(1-(1-((5-(2,4-difluorophenoxy)pyridin-2-yl)amino)-1-oxopropan-2-yl)-4,4-difluoropiperidin-3-yl)-5-(2,2,2-trifluoro-1-hydroxyethyl)pyridine 1-oxide] | 10 to 100 nM
8 | C[C@@H](C(=O)Nc1ccc(OCC2CC2)cn1)N1CCC(F)(F)[C@@H](c2c[nH]c(=O)c(N)n2)C1 [Example 105, (S)-2-((R)-3-(6-amino-5-oxo-4,5-dihydropyrazin-2-y1)-4,4-difluoropiperidin-l-y1)-N-(5-(cyclopropylmethoxy)pyridin-2-yl)propanamide] | 10 to 100 nM
9 | CC(C(=O)Nc1ccc(Oc2ccc(F)cc2)cn1)N1CCC(F)(F)C(c2c[nH]c(=O)c(CN3CCOCC3)c2)C1 (stereo not drawn) [Example 226, 2-(4,4-difluoro-3-(5-(morpholinomethyl)-6-oxo-1,6-dihydropyridin-3-yl)piperidin-1-yl)-N-(5-(4-fluorophenoxy)pyridin-2-yl)propanamide] | 10 to 100 nM
10 | C[C@@H](C(=O)Nc1cnc(Oc2ccc(F)cc2)cn1)N1CCC(F)(F)[C@@H](c2ccc(=O)[nH]c2)C1 [Example 68, (S)-2-((S)-4,4-difluoro-3-(6-oxo-1,6-dihydropyridin-3-yl)piperidin-1-yl)-N-(5-(4-fluorophenoxy)pyrazin-2-yl)propanamide] | 10 to 100 nM
11 | C[C@@H](C(=O)Nc1ccc(F)cn1)N1CCC(F)(F)[C@@H](c2ccc(=O)n(CC(F)F)c2)C1 [Example 193] | ≤ 10 nM
12 | C[C@@H](C(=O)Nc1cc(F)c(OCC2CC2)cn1)N1CCC(F)(F)[C@@H](c2ccc(=O)[nH]c2)C1 [Example 76, (S)-N-(5-(cyclopropyl-methoxy)-4-fluoropyridin-2-yl)-2-((S)-4,4-difluoro-3-(6-oxo-1,6-dihydropyridin-3-yl)piperidin-1-yl)propanamide] | 10 to 100 nM
13 | C[C@@H](C(=O)Nc1ccc(Oc2ccc(F)cc2F)cn1)[C@H]1CCC(F)(F)[C@@H](c2cc[n+]([O-])cc2)C1 [Example 291, 4-((1R,5S)-5-((R)-1-((5-(2,4-difluorophenoxy)pyridin-2-yl)amino)-1-oxopropan-2-yl)-2,2-difluorocyclohexyl)pyridine 1-oxide] | ≤ 10 nM
14 | C[C@@H](C(=O)Nc1ccc(Cl)cn1)N1CCC[C@@H](c2c[nH]c(=O)c(N)n2)C1 (single isomer, unassigned) [Example 174] | 100 to 3160 nM
15 | C[C@@H](C(=O)Nc1ccc(Oc2ccc(F)cc2F)cn1)N1CCC[C@@H](c2cc[n+]([O-])cc2)C1 [Example 182, 4-((S)-1-((S)-1-((5-(2,4-difluorophenoxy)pyridin-2-yl)amino)-1-oxopropan-2-yl)piperidin-3-yl)pyridine 1-oxide] | ≤ 10 nM
16 | C[C@@H](C(=O)Nc1ccc(Oc2ccc(F)cc2CN(C)C)cn1)N1CCC(F)(F)[C@@H](c2ccc(=O)[nH]c2)C1 [Example 98, (S)-2-((S)-4,4-difluoro-3-(6-oxo-1,6-dihydropyridin-3-yl)piperidin-1-yl)-N-(5-(2-((dimethylamino)methyl)-4-fluorophenoxy)pyridin-2-yl)propanamide] | 100 to 3160 nM
17 | CC(C(=O)Nc1ccc(Oc2ccc(F)cc2)nn1)N1CCC(F)(F)[C@@H](c2ccc(=O)[nH]c2)C1 (stereo partly drawn) [Example 63, 2-((S)-4,4-difluoro-3-(6-oxo-1,6-dihydropyridin-3-yl)piperidin-1-yl)-N-(6-(4-fluorophenoxy)pyridazin-3-yl)propanamide] | 100 to 3160 nM
18 | CC(C(=O)Nc1ccc(Cl)cn1)N1CCC(F)(F)C(c2c[nH]c(=O)c(CO)c2)C1 (stereo not drawn) [Example 155, N-(5-chloropyridin-2-yl)-2-(4,4-difluoro-3-(5-(hydroxymethyl)-6-oxo-1,6-dihydropyridin-3-yl)piperidin-1-yl)propanamide] | 100 to 3160 nM
19 | CC(C(=O)Nc1ccc(Oc2ccncc2)cn1)N1CCC(F)(F)[C@@H](c2ccc(=O)[nH]c2)C1 (stereo partly drawn) [Example 64, 2-((S)-4,4-difluoro-3-(6-oxo-1,6-dihydropyridin-3-yl)piperidin-1-yl)-N-(5-(pyridin-4-yloxy)pyridin-2-yl)propanamide] | 100 to 3160 nM
20 | C[C@@H](C(=O)Nc1ccc(OCC2CC2)cn1)N1CCC(F)(F)[C@@H](c2ccc(=O)[nH]c2)C1 [Example 75, (S)-N-(5-(cyclopropyl-methoxy)pyridin-2-yl)-2-((S)-4,4-difluoro-3-(6-oxo-1,6-dihydropyridin-3-yl)piperidin-1-yl)propanamide] | 10 to 100 nM
21 | COCCNCc1cc(C2CN(C(C)C(=O)Nc3ccc(Oc4ccc(F)cc4)cn3)CCC2(F)F)c[nH]c1=O (stereo not drawn) [Example 239, 2-(4,4-difluoro-3-(5-(((2-methoxyethyl)amino)methyl)-6-oxo-1,6-dihydropyridin-3-yl)piperidin-1-yl)-N-(5-(4-fluorophenoxy)pyridin-2-yl)propanamide] | ≤ 10 nM
22 | C[C@@H](C(=O)Nc1ccc(OCC2CC2)nn1)N1CCC(F)(F)[C@@H](c2c[nH]c(=O)c([C@H](O)C(F)(F)F)c2)C1 (single isomer, unassigned) [Example 210, (S)-N-(6-(cyclopropylmethoxy)pyridazin-3-yl)-2-((S)-4,4-difluoro-3-(6-oxo-5-((S)-2,2,2-trifluoro-1-hydroxyethyl)-1,6-dihydropyridin-3-yl)piperidin-1-yl)propanamide or (S)-N-(6-(cyclopropylmethoxy(pyridazin-3-yl)-2-((S)-4,4-difluoro-3-(6-oxo-5-((R)-2,2,2-trifluoro-1-hydroxyethyl)-1,6-dihydroypridin-3-yl)piperidin-1-yl)propanamide] | ≤ 10 nM
23 | C[C@@H](C(=O)Nc1ccc(Oc2ccc(F)cc2)cn1)N1CCC(F)(F)[C@@H](c2c[nH]c(=O)c([C@H](N)C(F)(F)F)c2)C1 (single isomer, unassigned) [Example 233] | ≤ 10 nM
24 | C[C@@H](C(=O)Nc1ccc(C2CC2)cn1)N1CCC(F)(F)[C@@H](c2c[nH]c(=O)cn2)C1 [Example 137, (S)-N-(5-cyclopropylpyridin-2-yl)-2-((R)-4,4-difluoro-3-(5-oxo-4,5-dihydropyrazin-2-yl)piperidin-1-yl)propanamide] | 100 to 3160 nM
25 | CCn1cc(C2CN([C@@H](C)C(=O)Nc3ccc(F)cn3)CCC2(F)F)ccc1=O (stereo partly drawn) [Example 188, (2S)-2-(3-(1-ethyl-6-oxo-1,6-dihydropyridin-3-yl)-4,4-difluoropiperidin-1-yl)-N-(5-fluoropyridin-2-yl)propanamide] | 100 to 3160 nM
26 | CC(C(=O)Nc1ccc(Oc2ccccc2)cn1)N1CCC(F)(F)C(c2cc[n+]([O-])cc2)C1 (stereo not drawn) [Example 110] | ≤ 10 nM
27 | CC(C(=O)Nc1ncc(Oc2ccc(F)cc2)cc1F)N1CCC(F)(F)[C@@H](c2ccc(=O)[nH]c2)C1 (stereo partly drawn) [Example 86, 2-((S)-4,4-difluoro-3-(6-oxo-1,6-dihydropyridin-3-yl)piperidin-1-yl)-N-(3-fluoro-5-(4-fluorophenoxy)pyridin-2-yl)propanamide] | 10 to 100 nM
28 | C[C@@H](C(=O)Nc1ccc(CC2CCC2)cn1)N1CCC(F)(F)[C@@H](c2ccc(=O)[nH]c2)C1 [Example 84, (S)-N-(5-(cyclobutyl-methyl)pyridin-2-yl)-2-((S)-4,4-difluoro-3-(6-oxo-1,6-dihydropyridin-3-yl)piperidin-1-yl)propanamide] | 10 to 100 nM
29 | CC(C(=O)Nc1cc(F)c(F)cn1)N1CCC(F)(F)[C@@H](c2ccc(=O)[nH]c2)C1 (stereo partly drawn) [Example 39, 2-((S)-4,4-difluoro-3-(6-oxo-1,6-dihydropyridin-3-yl)piperidin-1-yl)-N-(4,5-difluoropyridin-2-yl)propanamide] | 100 to 3160 nM
30 | C[C@@H](C(=O)Nc1ccc(OCC2CC2)cn1)N1CCC(F)(F)[C@@H](c2ccc(=O)n(C)c2)C1 [Example 150, (S)—N-(5-(cyclopropylmethoxy)pyridin-2-yl)-2-((S)-4,4-difluoro-3-(1-methyl-6-oxo-1,6-dihydropyridin-3-yl)piperidin-1-yl)propanamide] | 10 to 100 nM

— patent publication US11976057B2, “MrgX2 antagonists” (GlaxoSmithKline Intellectual Property Development Limited, priority 2020, dated 2024)
